# Experimental data published in patent publication US20260042747A1, “KIT INHIBITORS, COMPOUNDS, PHARMACEUTICAL COMPOSITIONS, AND METHODS OF USE THEREOF” (Alivexis, Inc., priority 2022, published 2026).
# Structures can show the parent of a compound that is named as a salt.
# Molecular target: recombinant human KIT tyrosine kinase protein (Homo sapiens (Human), UniProt P10721)
# Experiment: KIT tyrosine kinase assay (ADP-Glo)
# Assay type: biochemical
# Settings: @10 uM
# Description: An in vitro assay utilizing the recombinant human KIT tyrosine kinase protein was developed to measure compound inhibition of KIT. KIT tyrosine kinase activity was measured by the ADP-Glo Kinase Assay system with poly […]) peptide substrate. Kinase Assay was performed in white 384-well plates and the luminescence was measured by Victor X5 Multilabel Counter (Perkin Elmer). Recombinant intracellular domain of human KIT protein was purchased from Carna Biosciences (Kobe, Japan). Poly […]) peptide was purchased from Sigma-Aldrich (St. Louis, Missouri, USA). ADP-Glo Kinase Assay reagent was purchased from Promega (Madison, Wisconsin, USA). Each test compound was dissolved in 100% DMSO to prepare 10 mM stock solutions. […] After the preincubation, 3 μL of substrate/ATP mixture was added and incubated for 1 hour at room temperature. The tyrosine phosphorylation by KIT kinase was quantified by ADP-Glo kinase assay kit following the manufacturer's protocol. Briefly, the phosphorylation reaction was terminated by adding 10 μL ADP-Glo reagent and incubated for 60 minutes at room temperature. 20 μL of Kinase Detection Reagent was added to each well and luminescence was measured by plate reader. […] Half maximal inhibitory concentration (IC50) was calculated by a Four […] Logistic Regression model using GraphPad Prism (GraphPad Software). The value without recombinant KIT protein and without test compound was used as a negative control (assay background).
# Chain of recombinant human KIT tyrosine kinase protein (P10721 546-976): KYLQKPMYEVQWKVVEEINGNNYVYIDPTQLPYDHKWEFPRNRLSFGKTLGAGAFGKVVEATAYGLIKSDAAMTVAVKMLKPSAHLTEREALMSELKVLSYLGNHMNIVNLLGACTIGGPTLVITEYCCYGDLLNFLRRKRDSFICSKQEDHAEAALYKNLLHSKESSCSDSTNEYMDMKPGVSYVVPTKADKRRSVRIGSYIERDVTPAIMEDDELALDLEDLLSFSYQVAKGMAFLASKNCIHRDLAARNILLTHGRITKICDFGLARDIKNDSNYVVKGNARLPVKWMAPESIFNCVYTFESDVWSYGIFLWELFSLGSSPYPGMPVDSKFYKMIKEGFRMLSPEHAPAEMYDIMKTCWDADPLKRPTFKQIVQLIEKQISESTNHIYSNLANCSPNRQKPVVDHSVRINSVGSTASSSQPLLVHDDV
row,KIT % at single concentration (printed in KIT IC50 column) [%@10 uM],SMILES
1,59,"CC(c1ccc(CNC(=O)c2ccc3c(c2)[nH]c(=O)n3C)cn1)N1CCC(C(F)(F)F)C1 (stereo not shown) [Example 112, 1-Methyl-2-oxo-N-((6-(1-(3-(trifluoromethyl)pyrrolidin-1-yl)ethyl)pyridin-3-yl)methyl)-2,3-dihydro-1H-benzimidazole-5-carboxamide]"

# Same assay, conditions: Table 98
row,SMILES,IC50 [nM]
1,Cn1c(=O)[nH]c2cc(C(=O)NCc3ccc(Oc4cc(F)ccc4F)nc3)ccc21 [Example 41],36
2,Cn1c(=O)[nH]c2cc(C(=O)NCc3ccc(Oc4ccc(Cl)c(F)c4)nc3)ccc21 [Example 38],60
3,"C[C@H](NC(=O)c1ccc2c(c1)[nH]c(=O)n2C)c1ccc(N(C)c2ccc(F)cc2)nc1 [Compound 13, (S)—N-(1-(6-((4-Fluorophenyl)(methyl)amino)pyridin-3-yl)ethyl)-1-methyl-2-oxo-2,3-d ihydro-1H-benzimidazole-5-carboxamide]",40
4,Cn1c(=O)[nH]c2cc(C(=O)NCc3ccc(Oc4c(F)cc(F)cc4F)nc3)ccc21 [Example 42],27
5,Cc1cc(CNC(=O)c2ccc3c(c2)[nH]c(=O)n3C)cnc1Oc1ccc(F)cc1 [Example 45],130
6,CN(c1ccc(CNC(=O)c2ccc3c(c2)[nH]c(=O)n3C)cn1)C1CCOCC1 [Example 60],140
7,"C[C@H](NC(=O)c1ccc2c(c1)[nH]c(=O)n2C)c1ccc(Oc2ccc(F)c(F)c2)nc1 [Compound 7, (S)—N-(1-(6-(3,4-Difluorophenoxy)pyridin-3-yl)ethyl)-1-methyl-2-oxo-2,3-dihydro-1H-benzimidazole-5-carboxamide]",40
8,"Cn1c(=O)[nH]c2cc(C(=O)NCc3cnc4c(c3)ncn4-c3c(F)cccc3F)ccc21 [Compound 21, N-((3-(2,6-Difluorophenyl)-3H-imidazo[4,5-b]pyridin-6-yl)methyl)-1-methyl-2-oxo-2,3-dihydro-1H-benzimidazole-5-carboxamide trifluoroacetate]",660
9,"Cn1c(=O)[nH]c2cc(C(=O)NCc3cnc(Oc4ccc(F)cc4)s3)ccc21 [Compound 5, N-((2-(4-Fluorophenoxy)thiazol-5-yl)methyl)-1-methyl-2-oxo-2,3-dihydro-1H-benz imidazole-5-carboxamide]",3200
10,Cn1c(=O)[nH]c2cc(C(=O)NCc3ccc(Oc4ccc5cn[nH]c5c4)nc3)ccc21 [Example 44],120
11,Cc1cc(CNC(=O)c2ccc3c(c2)[nH]c(=O)n3C)cnc1Oc1ccccc1 [Example 43],140
12,Cn1c(=O)[nH]c2cc(C(=O)NCc3ccc(Oc4ccc5[nH]ncc5c4)nc3)ccc21 [Example 46],27
13,"CN1CCC(N(C)c2ccc(CNC(=O)c3ccc4c(c3)[nH]c(=O)n4C)cn2)CC1 [Compound 24, 1-Methyl-N-((6-(methyl(1-methylpiperidin-4-yl)amino)pyridin-3-yl)methyl)-2-oxo-2,3-dihydro-1H-benzimidazole-5-carboxamide]",340
14,CC(NC(=O)c1ccc2c(c1)[nH]c(=O)n2C)c1ccc(Oc2ccc(Cl)cc2F)nc1 (stereo not shown) [Example 52],24
15,"Cn1c(=O)[nH]c2cc(C(=O)NCc3ccc(Oc4cccc(C#N)c4)nc3)ccc21 [Compound 22, N-((6-(3-Cyanophenoxy)pyridin-3-yl)methyl)-1-methyl-2-oxo-2,3-dihydro-1H-benzimid azole-5-carboxamide trifluoroacetate]",460
16,"Cn1c(=O)[nH]c2cc(C(=O)NCc3cnc(NC4CCC(F)(F)CC4)s3)ccc21 [Compound 25, N-((2-((4,4-Difluorocyclohexyl)amino)thiazol-5-yl)methyl)-1-methyl-2-oxo-2,3-dihydro-1H-benzimidazole-5-carboxamide]",360
17,"O=C(NCc1ccc(Nc2ccc(F)cc2)nc1)c1ccc2[nH]c(=O)[nH]c2c1 [Compound 8, N-((6-((4-Fluorophenyl)amino)pyridin-3-yl)methyl)-2-oxo-2,3-dihydro-1H-benzimidazole-5-carboxamide trifluoroacetate]",190
18,C[C@H](NC(=O)c1ccc2c(c1)[nH]c(=O)n2C)c1ccc(Oc2ccc(Cl)cc2F)nc1 [Example 54],33
19,Cn1c(=O)[nH]c2cc(C(=O)NCc3ccc(OC4CCC(F)(F)CC4)nc3)ccc21 [Example 47],56
20,"CN1CCN(Cc2cccc(N(C)c3ccc(CNC(=O)c4ccc5c(c4)[nH]c(=O)n5C)cn3)c2)CC1 [Compound 26, 1-Methyl-N-((6-(methyl(3-((4-methylpiperazin-1-yl)methyl)phenyl)amino)pyridin-3-yl)methyl)-2-oxo-2,3-dihydro-1H-benzimidazole-5-carboxamide trifluoroacetate]",270
21,CC(NC(=O)c1ccc2c(c1)[nH]c(=O)n2C)c1ccc(Oc2ccc(F)c(F)c2)nc1 (stereo not shown) [Example 51],210
22,Cc1ccc(N(C)c2ccc(CNC(=O)c3ccc4c(c3)[nH]c(=O)n4C)cn2)cn1 [Example 63],37
23,"Cn1c(=O)[nH]c2cc(C(=O)NCc3ccc(C(F)c4ccc(F)cc4)nc3)ccc21 (stereo not shown) [Compound 16, N-((6-(Fluoro(4-fluorophenyl)methyl)pyridin-3-yl)methyl)-1-methyl-2-oxo-2,3-dihydro-1H-benzimidazole-5-carboxamide]",61
24,CC(NC(=O)c1ccc2c(c1)[nH]c(=O)n2C)c1ccc(Oc2cccc(F)c2F)nc1 (stereo not shown) [Example 53],79
25,"Cn1c(=O)[nH]c2cc(C(=O)NCc3ccc(N(c4ccc(F)cc4)C4CC4)nc3)ccc21 [Compound 23, N-((6-(Cyclopropyl(4-fluorophenyl)amino)pyridin-3-yl)methyl)-1-methyl-2-oxo-2,3-dihy dro-1H-benzimidazole-5-carboxamide]",78
26,Cn1c(=O)[nH]c2cc(C(=O)NCc3ccc(Oc4ccc(F)c(F)c4)nc3)ccc21 [Example 37],310
27,C[C@H](NC(=O)c1ccc2c(c1)[nH]c(=O)n2C)c1ccc(Oc2cccc(F)c2F)nc1 [Example 55],37

# Continued, values first:
row,IC50 [nM],SMILES
1,29,CN(c1ccc(F)cc1)c1ccc(CNC(=O)c2ccc3[nH]c(=O)[nH]c3c2)cn1 [Example 56]
2,150,CCN(CC)c1ccc(CNC(=O)c2ccc3c(c2)[nH]c(=O)n3C)cn1 [Example 85]
3,120,CN(Cc1ccccc1)c1ncc(CNC(=O)c2ccc3c(c2)[nH]c(=O)n3C)s1 [Example 91]
4,74,"CC(NC(=O)c1ccc2c(c1)[nH]c(=O)n2C)c1ccc(Oc2ccc(F)cc2F)nc1 (stereo not shown) [Compound 27, N-(1-(6-(2,4-Difluorophenoxy)pyridin-3-yl)ethyl)-1-methyl-2-oxo-2,3-dihydro-1H-benzi midazole-5-carboxamide]"
5,68,Cn1c(=O)[nH]c2cc(C(=O)NCc3ccc(N(C)[C@H]4C[C@H](C(F)(F)F)C4)nc3)ccc21 [Example 87]
6,950,Cn1c(=O)[nH]c2cc(C(=O)NCc3cnc(Oc4ccc(F)cc4)cn3)ccc21 [Example 49]
7,98,C[C@H](NC(=O)c1ccc2c(c1)[nH]c(=O)n2C)c1ccc(N(C)c2ccccc2F)nc1 [Example 88]
8,150,CN(Cc1ccncn1)c1ccc(CNC(=O)c2ccc3c(c2)[nH]c(=O)n3C)cn1 [Example 81]
9,210,Cc1ccc(CN(C)c2ccc(CNC(=O)c3ccc4c(c3)[nH]c(=O)n4C)cn2)nc1 [Example 79]
10,3300,Cn1c(=O)[nH]c2cc(C(=O)NCc3cnc4c(c3)ncn4-c3ccccc3F)ccc21 [Example 101]
11,270,CN(CC1CC(F)(F)C1)c1ncc(CNC(=O)c2ccc3c(c2)[nH]c(=O)n3C)s1 [Example 93]
12,120,CC(C)N(C)c1cnc(CNC(=O)c2ccc3c(c2)[nH]c(=O)n3C)cn1 [Example 94]

# Same assay, conditions: Table 99
row,SMILES,IC50 [nM]
1,CC(CO)N(C)c1ccc(CNC(=O)c2ccc3c(c2)[nH]c(=O)n3C)cn1 (stereo not shown) [Example 133],75
2,"CC(NC(=O)c1ccc2c(c1)[nH]c(=O)n2C)c1ccc(N(C)C(C)C)nc1 (single isomer, unassigned) [130 Peak 2]",1040

# Next, values leading:
row,IC50 [nM],SMILES
1,108,"COC(=O)C(NC(=O)c1ccc2c(c1)[nH]c(=O)n2C)c1ccc(N(C)C(C)C)nc1 (stereo not shown) [Example 114a, Methyl 2-(6-(isopropyl(methyl)amino)pyridin-3-yl)-2-(1-methyl-2-oxo-2,3-dihydro-1H-benzimidazole-5-carboxamido)acetate]"
2,2000,"CC(C)N(C)c1ccc(C(NC(=O)c2ccc3c(c2)[nH]c(=O)n3C)c2ccccc2)cn1 (stereo not shown) [Example 113, N-((6-(Isopropyl(methyl)amino)pyridin-3-yl)(phenyl)methyl)-1-methyl-2-oxo-2,3-dihydr o-1H-benzimidazole-5-carboxamide]"
3,126,CN(c1ccc(CNC(=O)c2ccc3c(c2)[nH]c(=O)n3C)cn1)C1CCC2(CC1)COC2 [Example 123]
4,274,CC(C)Oc1ccc(CNC(=O)c2ccc3c(c2)[nH]c(=O)n3C)cn1 [Example 117]
5,131,Cn1c(=O)[nH]c2cc(C(=O)NCc3ccc(NC4CCC(F)(F)CC4)nc3)ccc21 [Example 132]
6,632,Cn1c(=O)[nH]c2cc(C(=O)NCc3ccc(OC4CC(F)(F)C4)nc3)ccc21 [Example 118]
7,317,"CC(C)N(C)c1ccc(C(CO)NC(=O)c2ccc3c(c2)[nH]c(=O)n3C)cn1 (stereo not shown) [Example 114b, N-(2-hydroxy-1-(6-(Isopropyl(methyl)amino)pyridin-3-yl)ethyl)-1-methyl-2-oxo-2,3-dih ydro-1H-benzimidazole-5-carboxamide]"
